From US20070191627A1, “Stilbene derivatives and their use in medicaments” (priority 2003, published 2007) come the findings set out here.

In one assay the target is T1, COX 2 (Homo sapiens, UniProt P35354).
T1 construct: purchased IBL Products Company, Hamburg, Germany
T1 sequence (P35354 18-604): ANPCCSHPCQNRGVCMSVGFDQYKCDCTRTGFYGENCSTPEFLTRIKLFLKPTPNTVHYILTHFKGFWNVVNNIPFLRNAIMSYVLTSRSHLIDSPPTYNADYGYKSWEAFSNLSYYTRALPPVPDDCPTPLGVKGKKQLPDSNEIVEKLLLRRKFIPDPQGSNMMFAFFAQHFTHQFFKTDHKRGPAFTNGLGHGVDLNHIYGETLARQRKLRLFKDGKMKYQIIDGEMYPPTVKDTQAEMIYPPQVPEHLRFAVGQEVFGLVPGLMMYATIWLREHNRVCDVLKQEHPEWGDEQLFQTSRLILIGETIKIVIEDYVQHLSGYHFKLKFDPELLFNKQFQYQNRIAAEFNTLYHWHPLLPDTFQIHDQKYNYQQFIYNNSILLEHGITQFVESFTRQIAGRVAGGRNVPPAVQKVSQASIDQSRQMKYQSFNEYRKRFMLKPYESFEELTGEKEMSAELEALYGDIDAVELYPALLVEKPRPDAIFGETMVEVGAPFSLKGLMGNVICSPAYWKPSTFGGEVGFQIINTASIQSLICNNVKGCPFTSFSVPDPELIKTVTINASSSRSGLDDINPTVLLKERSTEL
Description: COX (human) inhibitor screening assay, COX 2. The class given is biochemical.
Settings: not given
The molecule `Oc1cc(O)cc(C=Cc2cc(O)c(O)c(O)c2)c1` [M7, 3,3′,4,5,5′-Pentahydroxystilbene] showed an IC50 of 0.005 µM.

`Oc1cc(C=Cc2cc(O)c(O)c(O)c2)cc(O)c1O` [M8, 3,3′,4,4′,5,5′-Hexahydroxystilbene]: the IC50 was 0.001 µM.

Turning to `Oc1ccc(C=Cc2cc(O)c(O)c(O)c2)cc1` [M9, 3,4,4′,5-Tetrahydroxystilbene], the IC50 was determined as 0.01 µM.

The same assay, now with this note: ratio of COX 2 IC50 to COX 1 IC50.
Take `Oc1cc(O)cc(C=Cc2cc(O)c(O)c(O)c2)c1` [M7, 3,3′,4,5,5′-Pentahydroxystilbene]: the “COX2/COX1 Ratio” value came out at 0.5.

On to `Oc1ccc(C=Cc2cc(O)c(O)c(O)c2)cc1` [M9, 3,4,4′,5-Tetrahydroxystilbene], for which the “COX2/COX1 Ratio” value is reported as 0.002.

The next assay deals with HL-60 cells. Description: Cell cycle distribution by FACS in HL-60 cells. The class given is cell-based, human. Conditions: 24 hours. The protocol:
HL-60 cells were incubated in the presence of hexahydroxystilbene. After 24 hours, the cells were washed, centrifuged and fixed in alcohol. Then, […] and examined by means of FACS analysis. Then, the cell cycle phase distribution was calculated.
For orientation: Flow cytometry measures light scatter and fluorescence of single cells or particles in a stream.
With `Oc1cc(C=Cc2cc(O)c(O)c(O)c2)cc(O)c1O` [M8, 3,3′,4,4′,5,5′-Hexahydroxystilbene], the “Cell cycle distribution, G2-M phase, in words” value was “a depletion of cells resulted in the G2-M phase” and the “Cell cycle distribution, S phase, in words” value was “stopped the cells in S phase”.

A further assay concerns DU-145. Description: Clonogenic test series (7 d) in DU-145 prostate cancer cells. The class given is cell-based. To be noted: Homo sapiens, DU-145, 168 h.
In turn, `Oc1cc(O)cc(C=Cc2cc(O)c(O)c(O)c2)c1` [M7, 3,3′,4,5,5′-Pentahydroxystilbene] registered an IC50 of 23 µM.

Molecule `Oc1cc(C=Cc2cc(O)c(O)c(O)c2)cc(O)c1O` [M8, 3,3′,4,4′,5,5′-Hexahydroxystilbene] came in with an IC50 of 25 µM.

`Oc1ccc(C=Cc2cc(O)c(O)c(O)c2)cc1` [M9, 3,4,4′,5-Tetrahydroxystilbene] had an IC50 of 30 µM.

For the next assay, the system named is HT-29 human colon tumor cells. The experiment in a line: Analysis of intracellular dATP pools in HT-29 cells. It is filed as cell-based. To be noted: 4 μM, HT-29, average. The procedure: (§1) The analysis of the intracellular dNTP concentrations was carried out according to the method of Garrett and Santi (Garrett, C.; Santi, D. V. A Rapid and Sensitive High-Pressure Liquid Chromatography Assay for Deoxyribonucleoside Triphosphates in Cell Extracts. Anal Biochem. 1979 Nov. 1; 99(2): 268-73.)
(§2) The action of hexahydroxystilbene (“M8”) on the intracellular dNTP concentrations in HL-60 cells was examined. The study was performed as described above. The cells were incubated with 6.25, 12.5 and 25 μM of hexahydroxystilbene, and then the dNTP pools were determined. […] The dATP concentrations dropped during treatment with 12.5 and 25 μM of hexahydroxystilbene to 27 and 41% of the starting values. The depletion of the dATP pools was especially impressive in the case of HT-29 human colon tumor cells; the dATP values dropped there as early as after treatment with 4 μM of the substance in an average of 1.5% of the starting values. […] The action of the substance can also be clarified by this impressive imbalance of the dNTP pools that are precursors of the DNA synthesis. The results of the experiment with HL-60 cells are plotted in FIG. 3.
As for `Oc1cc(C=Cc2cc(O)c(O)c(O)c2)cc(O)c1O` [M8, 3,3′,4,4′,5,5′-Hexahydroxystilbene], the “dATP values, % of the starting values” turned out to be 1.5%.

The subject of the next assay is HL-60 cells. Description: Analysis of intracellular dNTP pools by HPLC in HL-60 cells. The class given is cell-based, human. To be noted: 6.25 μM. The protocol: as §1, §2
Take `Oc1cc(C=Cc2cc(O)c(O)c(O)c2)cc(O)c1O` [M8, 3,3′,4,4′,5,5′-Hexahydroxystilbene]: the “dCTP pools, % of the control values” came out at 110% and the “dTTP pools, % of the starting values” was 84%.

The assay is the same for the next values; noted with them: 12.5 μM.
For the molecule `Oc1cc(C=Cc2cc(O)c(O)c(O)c2)cc(O)c1O` [M8, 3,3′,4,4′,5,5′-Hexahydroxystilbene], the “dATP concentrations, % of the starting values” was determined as 27%; the “dCTP pools, % of the control values” amounted to 137%; the “dTTP pools, % of the starting values” was found to be 72%.

The assay is the same for the next values; noted with them: 25 μM.
With `Oc1cc(C=Cc2cc(O)c(O)c(O)c2)cc(O)c1O` [M8, 3,3′,4,4′,5,5′-Hexahydroxystilbene], the “dATP concentrations, % of the starting values” amounted to 41%; the “dCTP pools, % of the control values” was found to be 199%; the “dTTP pools, % of the starting values” was determined as 27%.

The subject of a further assay is HL-60 human promyelocyte leukemia cells. The experiment in a line: Growth inhibition assay in HL-60 cells (72 h, cell count). It is filed as cell-based. To be noted: Homo sapiens, HL-60, read-out: IC50 (50% inhibition of cell growth), HL-60; 2nd determination series, 72 hours of incubation. The protocol:
The human promyelocyte leukemia cell line HL-60 was purchased from the ATCC (American Type Culture Collection, Rockville, Md., USA). The cells were cultured in RPMI 1640 medium with 10% heat-inactivated fetal calf serum (FCS) (GIBCO, Grand Island Biological Co., Grand Island, N.Y., USA) and with 1% penicillin/streptomycin in a humidified atmosphere with 5% CO2.
The cell numbers were determined by means of a microcell counter CC-108 (Sysmex, Kobe, Japan). For the tests, cells in the logarithmic growth phase were used.
Logarithmically-growing HL-60 cells were prepared in a density of 0.1×10^6 cells/ml in tissue culture flasks and incubated with various concentrations of the stilbene derivatives to be examined. After 72 hours, the cells were counted by means of the microcell counter. The viability of the cells was determined by means of trypan blue staining. Numbers of viable cells were calculated as results.
After 72 hours, the cells were counted by means of the microcell counter. The viability of the cells was determined by means of trypan blue staining. Numbers of viable cells were calculated as results.
On to `Oc1cc(C=Cc2cc(O)c(O)c(O)c2)cc(O)c1O` [M8, 3,3′,4,4′,5,5′-Hexahydroxystilbene], for which the IC50 came to 6.25 µM.

The assay is the same for the next values; noted with them: Homo sapiens, HL-60; 1st determination series, 72 hours; read-out: IC50 (μM), inhibition of growth of HL-60 human promyelocyte leukemia cells.
In the case of `Oc1cc(O)cc(C=Cc2cc(O)c(O)c(O)c2)c1` [M7, 3,3′,4,5,5′-Pentahydroxystilbene], the IC50 came out at 10 µM.

In the case of `Oc1cc(C=Cc2cc(O)c(O)c(O)c2)cc(O)c1O` [M8, 3,3′,4,4′,5,5′-Hexahydroxystilbene], the IC50 was found to be 4 µM.

Turning to `Oc1ccc(C=Cc2cc(O)c(O)c(O)c2)cc1` [M9, 3,4,4′,5-Tetrahydroxystilbene], the IC50 amounted to 9 µM.

The same assay, now with this note: Homo sapiens, HL-60; Table 3, 72 h; read-out: Growth inhibition (72 h) HL-60.
As for `Oc1cc(O)cc(C=Cc2cc(O)c(O)c(O)c2)c1` [M7, 3,3′,4,5,5′-Pentahydroxystilbene], the IC50 is 10 µM.

`Oc1cc(C=Cc2cc(O)c(O)c(O)c2)cc(O)c1O` [M8, 3,3′,4,4′,5,5′-Hexahydroxystilbene]: the IC50 amounted to 4 µM.

Turning to `Oc1ccc(C=Cc2cc(O)c(O)c(O)c2)cc1` [M9, 3,4,4′,5-Tetrahydroxystilbene], the IC50 was 9 µM.

The same assay, now with this note: Homo sapiens, HL-60; adding 50 or 100 μM of vitamin C; read-out: IC50 of growth inhibition, HL-60, with added vitamin C.
`Oc1cc(C=Cc2cc(O)c(O)c(O)c2)cc(O)c1O` [M8, 3,3′,4,4′,5,5′-Hexahydroxystilbene]: the IC50 was 2 µM.

For the next assay, the system named is PC-3. The experiment in a line: Clonogenic test series (7 d) in PC-3 prostate cancer cells. It is filed as cell-based. To be noted: Homo sapiens, PC-3, 168 h.
As to `Oc1cc(O)cc(C=Cc2cc(O)c(O)c(O)c2)c1` [M7, 3,3′,4,5,5′-Pentahydroxystilbene], the IC50 is 5 µM.

`Oc1cc(C=Cc2cc(O)c(O)c(O)c2)cc(O)c1O` [M8, 3,3′,4,4′,5,5′-Hexahydroxystilbene] came in with an IC50 of 2.5 µM.

`Oc1ccc(C=Cc2cc(O)c(O)c(O)c2)cc1` [M9, 3,4,4′,5-Tetrahydroxystilbene] had an IC50 of 8 µM.

The subject of another assay is HL-60 cells. Description: Apoptosis induction, Hoechst 33258/propidium iodide double staining in HL-60 cells. The class given is cell-based, human. Conditions: 6.25 μM, 24 hours. The protocol:
Then, the cells were treated for one hour with Hoechst 33258 (HO, Sigma, St. Louis, Mo., USA) and propidium iodide (PI, Sigma, St. Louis, Mo., USA) (5 μg/ml and 2 μg/ml). Then, the cells were photographed by means of a fluorescence microscope, and the cells were divided morphologically into early apoptotic, late apoptotic and necrotic cells. […] The results are plotted in FIG. 4.
As for `Oc1cc(C=Cc2cc(O)c(O)c(O)c2)cc(O)c1O` [M8, 3,3′,4,4′,5,5′-Hexahydroxystilbene], the “Cells with induction of apoptosis” value worked out at 68.5%.

The assay is the same for the next values; noted with them: 24 hours.
Consider `Oc1cc(C=Cc2cc(O)c(O)c(O)c2)cc(O)c1O` [M8, 3,3′,4,4′,5,5′-Hexahydroxystilbene], for which the “Apoptosis induction compared with resveratrol, in words” value is listed as “induced apoptosis in these cells in the case of significantly lower concentrations than resveratrol”.

A further assay deals with T2, COX 1 (Homo sapiens, UniProt P23219).
T2 construct: purchased IBL Products Company, Hamburg, Germany
T2 sequence (P23219 24-599): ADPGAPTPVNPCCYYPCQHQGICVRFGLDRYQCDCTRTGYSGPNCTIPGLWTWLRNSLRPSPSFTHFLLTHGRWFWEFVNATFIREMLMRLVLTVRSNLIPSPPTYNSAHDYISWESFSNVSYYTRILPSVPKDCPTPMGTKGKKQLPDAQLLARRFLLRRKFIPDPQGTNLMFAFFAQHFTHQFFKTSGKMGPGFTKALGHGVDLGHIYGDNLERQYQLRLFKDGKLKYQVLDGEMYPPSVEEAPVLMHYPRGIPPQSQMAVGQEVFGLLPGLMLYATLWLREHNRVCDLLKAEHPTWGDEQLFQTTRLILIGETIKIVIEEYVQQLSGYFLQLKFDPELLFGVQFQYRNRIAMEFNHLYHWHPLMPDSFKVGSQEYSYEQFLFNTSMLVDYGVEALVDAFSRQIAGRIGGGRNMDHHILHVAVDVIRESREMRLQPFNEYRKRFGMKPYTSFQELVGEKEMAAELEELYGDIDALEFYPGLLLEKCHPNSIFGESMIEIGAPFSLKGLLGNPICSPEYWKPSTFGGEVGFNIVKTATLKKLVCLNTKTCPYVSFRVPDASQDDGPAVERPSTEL
The experiment in a line: COX (human) inhibitor screening assay, COX 1. The class given is biochemical.
Settings: not given
In turn, `Oc1cc(O)cc(C=Cc2cc(O)c(O)c(O)c2)c1` [M7, 3,3′,4,5,5′-Pentahydroxystilbene] registered an IC50 of 0.01 µM.

Molecule `Oc1cc(C=Cc2cc(O)c(O)c(O)c2)cc(O)c1O` [M8, 3,3′,4,4′,5,5′-Hexahydroxystilbene] gave an IC50 of 0.5 µM.

In turn, `Oc1ccc(C=Cc2cc(O)c(O)c(O)c2)cc1` [M9, 3,4,4′,5-Tetrahydroxystilbene] had an IC50 of 5 µM.

The test system of another assay is LNCaP. The experiment in a line: Clonogenic test series (7 d) in LNCaP prostate cancer cells. It is filed as cell-based. Conditions: Homo sapiens, 168 h, LNCaP cells respond to 5-alpha-dihydrotestosterone.
As to `Oc1cc(O)cc(C=Cc2cc(O)c(O)c(O)c2)c1` [M7, 3,3′,4,5,5′-Pentahydroxystilbene], the IC50 was 7.5 µM.

In turn, `Oc1cc(C=Cc2cc(O)c(O)c(O)c2)cc(O)c1O` [M8, 3,3′,4,4′,5,5′-Hexahydroxystilbene] came in with an IC50 of 3.4 µM.

`Oc1ccc(C=Cc2cc(O)c(O)c(O)c2)cc1` [M9, 3,4,4′,5-Tetrahydroxystilbene] gave an IC50 of 9.5 µM.
